How the values were obtained:
Type in all cases: cell-based
[1] = system: 16HBe14o- cells; assay: human sputum elastase (HSE) induced hole formation and loss of TER in 16HBe14o- monolayers
Protocol: (§1) 16HBe14o- cells were grown on transwell clear membranes until they formed an electrically tight monolayer. In the absence of serum, the cells were treated for 24 hours with FP or vehicle. 5 μg/ml human sputum elastase (HSE) or 5 μg/ml Pseudomonas Aeruginosa elastase (PAE) was then added to the basolateral surface of the cells. The transepithelial resistance (TER) and the morphology of the monolayers were monitored over the next 24 hours.
(§2) When HSE was added to the basal surface of the both the 16HBE14o- and primary bronchial epithelial cells it caused a lowering of TER and formation of holes in the cell monolayers. […] When the cells were treated with PAE, the monolayer detached from the underlying membrane as a complete sheet. It took 4 hours for all of the control cultures treated with PAE to become detached whereas it took 8 hours for all of the FP pretreated cultures to become detached.

[2] = system: human primary bronchial epithelial cells; assay: human sputum elastase (HSE) induced hole formation and loss of TER in primary bronchial epithelial cells
Protocol: as §1, §2

[3] = system: 16HBe14o- cells; assay: Pseudomonas aeruginosa elastase (PAE) induced detachment and loss of TER of 16HBe14o- monolayers
Protocol: as §1, §2

[4] = system: 16HBE epithelial cells; assay: mechanical wounding of confluent 16HBE epithelial cultures, wound area; settings: 16HBE cultures, various steroid concentrations for 24 h or 48 h before wounding (FIG. 7), versus control cultures
Protocol: To study the effect of FP on protection from mechanical damage, multiple concentric wounds were generated in multiwell plates, thus achieving a large total wound length for analysis. 10^4 cells in 0.2 ml of growth medium containing 5% steroid-free FCS were added to wells in 96 well plates and cultured until confluent with regular changes of growth medium. Cultures were incubated for a further 24 h or 48 h before wounding. After wounding, cultures were rinsed in PBS, fixed at room temperature in methanol/acetone (50/50), air dried and then stained with 0.1% crystal violet. Wound areas were determined using a Leica Q550IW image analysis system. […] The steroid effects were obvious at 24 h, but even more marked at 48 h. At the latter time point, control wound size had increased, whilst the highest dose of either steroid had reduced wound size, compared to wounds after 24 h exposure. […] In the control cultures, tearing of the epithelium from the dish surface beyond the area of direct contact with the needle occurs producing a wound width that is much greater than the needle width. In contrast, in steroid treated cultures, wounds become progressively smaller with increasing steroid concentration until the damage area is limited to the epithelium that has had direct contact with the needle.

Q: Which results are given for CCC(=O)O[C@]1(C(=O)SCF)[C@H](C)C[C@H]2[C@@H]3C[C@H](F)C4=CC(=O)C=C[C@]4(C)[C@@]3(F)[C@@H](O)C[C@@]21C [FP, S-fluoromethyl 6α, 9β-difluoro-11β-hydroxy-16α-methyl-17α-propionyloxy-3-oxoandrosta-1,4-diene-17β-carbothiate]?
A: rate of hole formation in cell monolayer ([1]; 16HBE14o- cells, 24 h FP pretreatment, 5 μg/ml HSE basolateral, monitored over 24 hours): reduction in the rate of hole formation; loss of TER induced by HSE ([1]; 16HBe14o- cells, after 24 hour incubation with HSE (FIG. 2)): protective effect; loss of TER induced by human sputum elastase ([2]; primary bronchial epithelial cells (FIG. 3)): protective effect; rate of hole formation in cell monolayer ([2]; primary bronchial epithelial cells, FP pretreatment, HSE added to basal surface): reduction in the rate of hole formation; loss of TER induced by pseudomonas elastase ([3]; 16HBe14o- cells (FIG. 5)): protective effect; time for all cultures to become detached from the underlying membrane ([3]; 16HBe14o- cells, 24 h FP pretreatment, 5 μg/ml PAE basolateral, control cultures 4 hours): 8 h; wound size (wound area) [4]: dose-related decrease in wound size

Reference: patent US20040132700A1, “Use of fluticasone propionate in the treatment of diseases ameliorated by enhancement of epithelial madrix adhesion such as asthma cystic fibrosis and influenza” (priority 2001, published 2004)
